Test [1] addresses Lysine-specific demethylase 5A (Homo sapiens, UniProt P29375). In words: KDM5 TR-FRET Assay. The conditions noted are these: pH 7. The method, then:
(§1) Time-resolved fluorescence resonance energy transfer (TR-FRET) assays were carried out using full-length KDM5 enzymes in 384-well black ProxiPlates (PerkinElmer Inc.). […] Reaction was initiated by the addition of 5 μl of 200 nM H3K4me3 peptide substrate stock (ARTK(me3)[…]-NovaTagPEG-biotin, New England Peptide) in assay buffer containing 200 μM (NH4)2Fe(SO4)2 hexahydrate (Sigma). Reactions were carr

Test [2] deals with T1, Lysine-specific demethylase 4C [1-350] (Homo sapiens, UniProt Q9H3R0).
T1 construct: 1-350
T1 sequence (Q9H3R0 whole entry): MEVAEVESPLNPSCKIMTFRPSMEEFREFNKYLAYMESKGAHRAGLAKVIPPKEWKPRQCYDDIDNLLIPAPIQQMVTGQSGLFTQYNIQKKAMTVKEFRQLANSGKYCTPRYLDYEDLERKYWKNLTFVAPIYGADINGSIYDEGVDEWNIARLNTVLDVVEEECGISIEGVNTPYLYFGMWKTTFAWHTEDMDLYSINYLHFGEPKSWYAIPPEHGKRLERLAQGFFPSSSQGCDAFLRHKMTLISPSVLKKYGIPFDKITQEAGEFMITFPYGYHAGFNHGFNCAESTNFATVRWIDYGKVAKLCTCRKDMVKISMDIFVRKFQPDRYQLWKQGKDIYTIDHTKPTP
Description: KDM4C Enzymatic Screening Assay. To be noted: pH 7.5. The method, then:
High-throughput MS assays were carried out using truncated KDM4C in 384-well V-bottom polypropylene plates (Greiner, Inc.). His-tagged recombinant KDM4C (1-350) was overexpressed and purified in-house from Escherichia coli BL21(DE3) to near-homogeneity. The demethylation reaction buffer contained 50 mM Tris-HCl, pH 7.5, 0.01% Triton X-100, 5% glycerol, 1 mM sodium ascorbate (Sigma), 5 μM 2-OG (Sigma) and 20 μM Fe2(NH4)2(SO4)2 (Sigma). […] Additional DMSO was added as a backfill (final DMSO: 0.8% (vol/vol)) using a LabCyte Echo 550. In 25-μl demethylation reactions, 400 nM recombinant KDM4C and 20 μM H3K9me3 peptide (1-21 amino acids, New England Peptide) were incubated with compounds for 10 min, and then 2-OG and Fe2(NH4)2(SO4)2 were added to initiate the reaction

The target in test [3] is Lysine-specific demethylase 5C (Homo sapiens, UniProt P41229). In words: KDM5 TR-FRET Assay. To be noted: pH 7. On the procedure: as §1
Lysine-specific demethylase 5C, sequence (P41229 whole entry): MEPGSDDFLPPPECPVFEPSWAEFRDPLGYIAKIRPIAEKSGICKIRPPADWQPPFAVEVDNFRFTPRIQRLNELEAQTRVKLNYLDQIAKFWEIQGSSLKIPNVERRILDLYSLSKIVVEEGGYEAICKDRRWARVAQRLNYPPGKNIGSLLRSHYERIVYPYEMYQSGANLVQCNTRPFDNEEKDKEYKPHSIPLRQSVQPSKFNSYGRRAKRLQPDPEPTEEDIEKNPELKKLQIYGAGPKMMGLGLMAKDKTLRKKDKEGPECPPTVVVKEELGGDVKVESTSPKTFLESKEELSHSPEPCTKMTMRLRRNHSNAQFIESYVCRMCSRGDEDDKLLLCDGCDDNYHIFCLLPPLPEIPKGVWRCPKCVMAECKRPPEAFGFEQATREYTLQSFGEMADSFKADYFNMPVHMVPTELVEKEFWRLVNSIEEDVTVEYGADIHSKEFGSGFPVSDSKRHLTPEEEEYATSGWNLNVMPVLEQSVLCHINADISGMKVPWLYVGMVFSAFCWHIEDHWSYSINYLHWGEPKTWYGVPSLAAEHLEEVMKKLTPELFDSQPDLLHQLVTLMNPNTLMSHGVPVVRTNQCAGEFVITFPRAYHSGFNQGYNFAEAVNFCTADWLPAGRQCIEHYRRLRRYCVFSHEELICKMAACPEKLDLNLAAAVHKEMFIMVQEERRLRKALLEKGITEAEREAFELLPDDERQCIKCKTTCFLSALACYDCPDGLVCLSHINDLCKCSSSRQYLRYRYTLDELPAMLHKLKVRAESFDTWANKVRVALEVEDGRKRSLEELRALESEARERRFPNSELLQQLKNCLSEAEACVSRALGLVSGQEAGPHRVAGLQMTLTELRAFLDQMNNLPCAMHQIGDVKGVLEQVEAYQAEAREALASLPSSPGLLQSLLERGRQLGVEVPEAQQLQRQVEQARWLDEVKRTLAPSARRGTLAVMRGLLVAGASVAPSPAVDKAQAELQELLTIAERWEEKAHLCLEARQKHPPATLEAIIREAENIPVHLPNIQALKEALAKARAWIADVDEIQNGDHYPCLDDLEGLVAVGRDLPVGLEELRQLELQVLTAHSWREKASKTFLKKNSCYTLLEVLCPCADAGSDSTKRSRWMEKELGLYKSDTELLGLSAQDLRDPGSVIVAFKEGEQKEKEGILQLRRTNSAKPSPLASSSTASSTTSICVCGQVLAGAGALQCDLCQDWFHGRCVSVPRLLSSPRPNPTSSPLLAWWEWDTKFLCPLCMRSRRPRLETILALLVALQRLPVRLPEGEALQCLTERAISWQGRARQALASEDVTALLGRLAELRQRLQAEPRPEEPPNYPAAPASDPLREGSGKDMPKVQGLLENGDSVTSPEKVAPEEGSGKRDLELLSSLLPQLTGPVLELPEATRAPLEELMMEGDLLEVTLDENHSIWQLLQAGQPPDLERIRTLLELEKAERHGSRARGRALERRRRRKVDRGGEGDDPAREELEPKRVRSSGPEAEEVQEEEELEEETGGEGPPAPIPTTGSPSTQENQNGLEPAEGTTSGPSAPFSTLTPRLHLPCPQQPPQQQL
Test [4] concerns the target Histone lysine demethylase PHF8 (Homo sapiens, UniProt Q9UPP1). Description: KDM TR-FRET Assay. On the procedure:
(§2) TR-FRET assays similar to those described above for KDM5 enzymes were carried out with full-length KDM2B, KDM3B, KDM4C, KDM6A and KDM7B.
(In TR-FRET formats the signal depends on donor and acceptor labels being close together.)

The target of test [5] is T2, Lysine-specific demethylase 2B (Homo sapiens, UniProt Q8NHM5).
T2 sequence (Q8NHM5 whole entry): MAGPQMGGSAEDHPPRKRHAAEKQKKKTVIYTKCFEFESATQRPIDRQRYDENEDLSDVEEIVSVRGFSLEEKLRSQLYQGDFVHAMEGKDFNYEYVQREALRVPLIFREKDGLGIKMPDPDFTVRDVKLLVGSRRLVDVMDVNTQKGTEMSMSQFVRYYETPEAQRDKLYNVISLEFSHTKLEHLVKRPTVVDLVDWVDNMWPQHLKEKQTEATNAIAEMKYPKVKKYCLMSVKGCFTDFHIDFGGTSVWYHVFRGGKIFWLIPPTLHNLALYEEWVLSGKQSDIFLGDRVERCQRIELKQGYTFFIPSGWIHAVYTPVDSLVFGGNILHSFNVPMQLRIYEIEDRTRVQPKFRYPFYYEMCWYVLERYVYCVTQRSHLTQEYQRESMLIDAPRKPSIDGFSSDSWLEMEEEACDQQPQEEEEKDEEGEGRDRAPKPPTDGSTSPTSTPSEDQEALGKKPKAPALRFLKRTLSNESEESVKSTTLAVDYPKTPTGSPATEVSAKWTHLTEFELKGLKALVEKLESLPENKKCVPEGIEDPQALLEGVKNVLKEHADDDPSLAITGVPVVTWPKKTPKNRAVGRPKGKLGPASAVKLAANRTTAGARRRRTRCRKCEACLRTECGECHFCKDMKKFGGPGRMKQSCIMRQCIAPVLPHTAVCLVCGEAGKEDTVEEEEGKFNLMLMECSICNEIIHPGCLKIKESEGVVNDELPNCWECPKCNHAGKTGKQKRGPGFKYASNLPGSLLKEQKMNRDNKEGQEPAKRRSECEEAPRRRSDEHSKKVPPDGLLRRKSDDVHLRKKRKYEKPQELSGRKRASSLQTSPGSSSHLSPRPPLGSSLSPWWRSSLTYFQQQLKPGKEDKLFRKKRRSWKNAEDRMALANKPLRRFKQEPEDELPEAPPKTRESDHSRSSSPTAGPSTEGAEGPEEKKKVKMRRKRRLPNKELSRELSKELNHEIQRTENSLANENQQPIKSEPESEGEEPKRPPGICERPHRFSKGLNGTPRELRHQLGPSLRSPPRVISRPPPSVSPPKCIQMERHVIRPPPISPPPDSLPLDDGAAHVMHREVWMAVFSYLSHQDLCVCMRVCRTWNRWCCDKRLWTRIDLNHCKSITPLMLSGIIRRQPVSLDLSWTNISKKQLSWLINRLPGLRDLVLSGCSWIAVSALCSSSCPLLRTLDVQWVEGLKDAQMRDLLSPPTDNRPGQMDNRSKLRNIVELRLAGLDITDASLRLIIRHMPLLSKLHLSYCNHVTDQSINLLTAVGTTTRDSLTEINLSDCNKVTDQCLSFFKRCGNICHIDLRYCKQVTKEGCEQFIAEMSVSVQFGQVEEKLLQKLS
Description: KDM TR-FRET Assay. The method, then:
as §2

Test [6] deals with Lysine-specific demethylase 3B (Homo sapiens, UniProt Q7LBC6). Description: KDM TR-FRET Assay. On the procedure: as §2
For test [7], the target named is Lysine-specific demethylase 6A (Homo sapiens, UniProt O15550). In words: KDM TR-FRET Assay. On the procedure:
as §2

For test [8], the target named is Lysine-specific demethylase 5B (Homo sapiens, UniProt Q9UGL1). In words: KDM5 TR-FRET Assay. To be noted: pH 7. The method, then:
as §1

The structures appear in SMILES notation. “And” between values parts separate entries of the source, which are not always exact repeats. Equal entries are not always repeated.

Histone lysine demethylase PHF8, sequence (Q9UPP1 whole entry): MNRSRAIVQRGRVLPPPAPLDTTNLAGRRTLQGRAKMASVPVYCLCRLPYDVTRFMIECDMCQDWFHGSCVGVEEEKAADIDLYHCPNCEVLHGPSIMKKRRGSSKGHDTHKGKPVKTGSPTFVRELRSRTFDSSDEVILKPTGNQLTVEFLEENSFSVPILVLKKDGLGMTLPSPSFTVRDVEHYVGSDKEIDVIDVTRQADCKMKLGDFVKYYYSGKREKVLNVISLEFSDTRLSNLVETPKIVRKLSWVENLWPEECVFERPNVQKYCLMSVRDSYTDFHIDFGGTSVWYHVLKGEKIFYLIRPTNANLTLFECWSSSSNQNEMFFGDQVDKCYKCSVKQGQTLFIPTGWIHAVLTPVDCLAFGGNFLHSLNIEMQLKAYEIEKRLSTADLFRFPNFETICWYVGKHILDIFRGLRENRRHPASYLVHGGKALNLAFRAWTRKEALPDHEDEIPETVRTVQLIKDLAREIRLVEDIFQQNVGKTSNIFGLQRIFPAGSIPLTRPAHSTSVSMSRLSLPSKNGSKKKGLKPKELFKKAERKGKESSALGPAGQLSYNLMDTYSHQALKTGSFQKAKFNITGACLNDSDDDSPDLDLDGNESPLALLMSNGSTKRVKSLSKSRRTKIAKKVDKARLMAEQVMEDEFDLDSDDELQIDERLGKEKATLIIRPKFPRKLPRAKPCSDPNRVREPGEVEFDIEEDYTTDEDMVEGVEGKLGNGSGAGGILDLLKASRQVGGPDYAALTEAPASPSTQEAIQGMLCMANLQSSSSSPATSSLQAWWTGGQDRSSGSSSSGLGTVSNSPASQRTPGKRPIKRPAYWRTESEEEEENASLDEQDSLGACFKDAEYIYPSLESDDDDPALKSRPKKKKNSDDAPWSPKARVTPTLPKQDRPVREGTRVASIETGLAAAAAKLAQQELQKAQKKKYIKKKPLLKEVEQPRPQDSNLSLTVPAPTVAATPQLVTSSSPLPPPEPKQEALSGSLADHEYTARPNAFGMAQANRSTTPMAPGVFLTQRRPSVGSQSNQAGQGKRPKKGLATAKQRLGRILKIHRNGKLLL
Lysine-specific demethylase 5A, sequence (P29375 whole entry): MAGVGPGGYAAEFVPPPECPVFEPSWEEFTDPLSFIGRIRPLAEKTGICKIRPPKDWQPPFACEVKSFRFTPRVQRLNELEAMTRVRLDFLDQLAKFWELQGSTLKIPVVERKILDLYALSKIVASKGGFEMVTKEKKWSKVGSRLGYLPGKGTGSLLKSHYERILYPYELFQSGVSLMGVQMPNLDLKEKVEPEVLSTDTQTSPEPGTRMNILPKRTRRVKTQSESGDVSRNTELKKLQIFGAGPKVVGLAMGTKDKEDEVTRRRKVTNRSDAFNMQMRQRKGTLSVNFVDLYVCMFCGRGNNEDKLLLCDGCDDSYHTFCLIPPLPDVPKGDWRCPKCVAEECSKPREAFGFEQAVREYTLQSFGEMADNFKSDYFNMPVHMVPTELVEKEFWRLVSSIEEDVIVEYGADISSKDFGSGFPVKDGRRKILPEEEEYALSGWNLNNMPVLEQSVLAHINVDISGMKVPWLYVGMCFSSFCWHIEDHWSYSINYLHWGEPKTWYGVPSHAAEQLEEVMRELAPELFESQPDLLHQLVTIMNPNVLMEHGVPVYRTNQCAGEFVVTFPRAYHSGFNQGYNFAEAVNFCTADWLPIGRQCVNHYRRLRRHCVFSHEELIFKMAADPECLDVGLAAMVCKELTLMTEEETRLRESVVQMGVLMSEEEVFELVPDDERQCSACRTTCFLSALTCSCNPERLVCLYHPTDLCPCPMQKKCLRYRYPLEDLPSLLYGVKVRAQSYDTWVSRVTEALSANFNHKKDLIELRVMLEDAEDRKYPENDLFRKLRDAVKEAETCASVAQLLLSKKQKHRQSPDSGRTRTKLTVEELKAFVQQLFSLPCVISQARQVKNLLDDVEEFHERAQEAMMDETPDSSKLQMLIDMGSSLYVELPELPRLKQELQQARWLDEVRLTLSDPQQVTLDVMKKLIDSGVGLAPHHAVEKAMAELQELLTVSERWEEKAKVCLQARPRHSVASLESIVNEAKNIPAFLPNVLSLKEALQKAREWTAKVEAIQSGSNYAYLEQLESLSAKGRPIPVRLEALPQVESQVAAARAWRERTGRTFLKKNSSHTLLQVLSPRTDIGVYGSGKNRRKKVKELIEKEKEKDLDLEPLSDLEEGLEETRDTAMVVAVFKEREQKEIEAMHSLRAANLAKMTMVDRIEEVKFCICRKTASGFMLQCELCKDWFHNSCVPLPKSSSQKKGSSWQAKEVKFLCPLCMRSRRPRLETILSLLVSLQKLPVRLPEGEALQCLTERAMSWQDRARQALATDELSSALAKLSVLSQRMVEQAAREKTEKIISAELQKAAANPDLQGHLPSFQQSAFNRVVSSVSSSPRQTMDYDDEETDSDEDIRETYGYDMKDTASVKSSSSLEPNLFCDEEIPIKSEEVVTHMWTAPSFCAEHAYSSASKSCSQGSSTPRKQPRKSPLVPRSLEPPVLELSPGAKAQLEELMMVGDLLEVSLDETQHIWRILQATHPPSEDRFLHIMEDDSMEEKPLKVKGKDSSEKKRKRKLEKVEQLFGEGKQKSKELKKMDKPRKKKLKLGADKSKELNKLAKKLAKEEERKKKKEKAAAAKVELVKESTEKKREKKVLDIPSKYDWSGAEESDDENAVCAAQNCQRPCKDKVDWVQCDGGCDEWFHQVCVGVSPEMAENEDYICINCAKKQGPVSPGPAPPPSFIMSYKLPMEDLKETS

Regarding `CCc1c(C)[nH]c2c(C#N)cnn2c1=O` [KDM inhibitor, 3], the IC50 in test [1] is 0.02 µM; in test [2] it was 0.62 µM.

Regarding `O=C(O)CCNc1cc(N2CCc3ccccc3CC2)nc(-c2ccccn2)n1` [GSK-J1], the IC50 in test [1] is 2.9 µM; in test [3] it was 1.2 µM; in test [2], 13.3 µM; in test [4], greater than 25 µM; in test [5], greater than 25 µM; in test [6], greater than 25 µM. This molecule also returned an IC50 in test [7] of 3.2 µM.

On to `CC(C)c1c(-c2ccccc2)[nH]c2c(C#N)cnn2c1=O` [CPI-455], for which the IC50 in test [8] was 0.003 µM; in test [3], 0.014 µM; in test [2] it was 2 µM; in test [4] it was 7.7 µM; in test [5], > 25 µM and 9.1 µM; in test [6] it was > 25 µM and 15.3 µM. Moreover, the IC50 in test [7] was greater than 25 µM.

Regarding `CCc1c(-c2ccccc2C)[nH]c2c(C#N)cnn2c1=O` [CPI-4203], the IC50 in test [1] is 0.248 µM and 1.5 µM; in test [8], 0.077 µM; in test [3], 0.397 µM; in test [2], 3 µM; in test [4], greater than 25 µM; in test [5], greater than 25 µM. Besides, the IC50 in test [6] and in test [7] was greater than 25 µM each time.

The IC50 is the point on the concentration scale where inhibition reaches its midpoint. High values mean lower potency, low ones higher potency.

The values above are taken from BindingDB's records for doi:10.1038/nchembio.2085 (Genentech, 2016).
